Experiments:
[1] = system: black/white exploration test in rats; details: cited from earlier work
[2] = system: chronic mild stress induced anhedonia in rats; test: chronic mild stress induced anhedonia in rats (sucrose consumption); format: in vivo, Male Wistar rats
Source text: The model of chronic mild stress induced anhedonia in rats. […] This model is based on the observation that chronic mild stress causes a gradual decrease in sensitivity to rewards, for example consumption of sucrose, and that this decrease is dose-dependently reversed by chronic treatment with antidepressants. The method has previously been described and more information with respect to the test appears from Willner, Paul, Psycopharmacology, 1997, 134, 319-329. Male Wistar rats were trained to consume a 1% sucrose solution by nine 1-hour baseline tests in which sucrose was presented in the home cage following 14 h food and water deprivation. One group of animals was subjected to a chronic mild stress procedure for a period of 9 consecutive weeks. Each week of the stress regime consisted of two periods of food and water deprivation, two periods of 45-degree cage tilt, two periods of intermittent illumination (light on and off every 2 h), two periods of soiled cage (250 ml water saw dust bedding), two periods of paired housing, two periods of low stroboscobic illumination (150 flashes/min) and two periods of no stress. All stress periods were of 12-14 hours duration and followed continuously, day and night. Control animals were housed in separate rooms with food and water freely available except for a 14-h period preceding each sucrose test, and they had no contact with stressed animals. Stressed animals as well as control animals were divided into matched subgroups, and for subsequent five weeks they received daily intraperitoneal injections (1 ml/kg body weight) of vehicle (minimum amount of propylene glycol and methane sulfonic acid (1:1) diluted with water) or test compound. Sucrose tests were carried out 24 hours following to last drug treatment.

sigma2 = details: cited from earlier work
psychosis = details: cited from earlier work

Row | Compound | anxiolytic activity in the black/white exploration test [1] | consumption of sucrose in the control animals ([2]; non-stressed control rats, daily i.p. for five weeks) | sucrose intake in stressed animals versus initial scores ([2]; stressed rats, 1.0 mg/kg daily i.p.) | reversal of chronic mild stress induced deficit in sucrose intake ([2]; stressed rats, 1.0 mg/kg daily i.p. for five weeks) | sigma ligand potency and selectivity (sigma2) | clinical effect in the treatment of psychosis (psychosis)
1 | Fc1ccc(-n2cc(CCCCN3CCC4(CC3)OCc3ccccc34)c3ccccc32)cc1 [compound of the invention, 1′-[4-[1-(4-fluorophenyl)-1H-indole-3-yl]-1-butyl]-spiro[isobenzofuran-1(3H),4′-piperidine]] | active over a large dose range | did not significantly affect | significantly increased from initial scores after three, four and five weeks | able to reverse | potent and selective sigma ligand, in particular a sigma2 ligand | 
2 | C[C@@H]1CN(CCCn2c3ccccc3c3ccccc32)C[C@H](C)N1 [rimcazole] |  |  |  |  |  | clinically shows effect in the treatment of psychosis

Source: patent publication US6358966B2, “Treatment of depression” (H. Lundbeck A/S, priority 1998, dated 2002)
